# According to patent publication US20190308988A1, “OPIOID RECEPTOR ANTAGONIST PRODRUGS” (Nirsum Laboratories, Inc., priority 2017, published 2019):
# pIC50: −log10 of the molar value. Where a name gives a salt, the structure may show the parent alone. Read-outs that look alike come from different tables or passages of the source.
# What was measured:
# DOR = target: T1, DOR (Homo sapiens, UniProt P41143); experiment: Opioid receptor binding assay, DOR ([3H]-DADLE)
# T1 construct: expressed in transfected cells
# T1 sequence (P41143 whole entry): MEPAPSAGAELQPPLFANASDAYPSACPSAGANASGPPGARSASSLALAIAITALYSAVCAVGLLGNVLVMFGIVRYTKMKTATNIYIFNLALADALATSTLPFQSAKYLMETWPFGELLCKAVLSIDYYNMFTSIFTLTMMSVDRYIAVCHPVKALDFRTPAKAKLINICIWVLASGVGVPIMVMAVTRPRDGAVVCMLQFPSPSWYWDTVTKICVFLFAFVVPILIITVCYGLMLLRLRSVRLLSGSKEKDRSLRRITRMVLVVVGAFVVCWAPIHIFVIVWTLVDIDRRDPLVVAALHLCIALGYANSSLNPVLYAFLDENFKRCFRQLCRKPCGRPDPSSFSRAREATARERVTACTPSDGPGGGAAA
# Experimental: (§1) Receptor binding assays were performed to assess the ability of compounds to inhibit binding to radiolabeled ligand.
# (§2) The stable cell lines were established and prepared cell membrane obtained using these cell lines.
# (§3) 1) Transfer 1 μl of specified concentration compound to assay plate according to the plate map for nonspecific binding. Transfer 1 μl of DMSO to assay plate according to plate map for total binding. 2) Follow the plate map. Dispense 99 μl of membrane stocks into the plate. 3) Add 100 μl of radio ligand. 4) Seal the plates. Incubate at RT for 1 hour. 5) Soak the Unifilter-96 GF/C filter plates with 50 μl of 0.3% PEI per well for at least 0.5 hour at room temperature. 6) When binding assays are completed, filter the reaction mixture through GF/C plates using Perkin Elmer Filtermate Harvester, and then wash each plate for 4 times with cold wash buffer. 7) Dry the filter plates for 1 hour at 50 degrees. 8) After drying, seal the bottom of the filter plate wells using Perkin Elmer Unifilter-96 backing seal tape. Add 50 μl of Perkin Elmer Microscint 20 cocktail. Seal top of filter plates with Perkin Elmer TopSeal-A sealing film. 9) Count ^3H trapped on filter using Perkin Elmer MicroBeta2 Reader second day. 10) Analyze the data with GraphPad Prism 5. Calculate the “Inhibition [% Control]” using the equation: % Inh=(1−Background subtracted Assay value/Background subtracted HC value)*100.
# KOR = target: T2, KOR (Homo sapiens, UniProt P41145); experiment: Opioid receptor binding assay, KOR ([3H]Diprenorphine)
# T2 construct: expressed in transfected cells
# T2 sequence (P41145 whole entry): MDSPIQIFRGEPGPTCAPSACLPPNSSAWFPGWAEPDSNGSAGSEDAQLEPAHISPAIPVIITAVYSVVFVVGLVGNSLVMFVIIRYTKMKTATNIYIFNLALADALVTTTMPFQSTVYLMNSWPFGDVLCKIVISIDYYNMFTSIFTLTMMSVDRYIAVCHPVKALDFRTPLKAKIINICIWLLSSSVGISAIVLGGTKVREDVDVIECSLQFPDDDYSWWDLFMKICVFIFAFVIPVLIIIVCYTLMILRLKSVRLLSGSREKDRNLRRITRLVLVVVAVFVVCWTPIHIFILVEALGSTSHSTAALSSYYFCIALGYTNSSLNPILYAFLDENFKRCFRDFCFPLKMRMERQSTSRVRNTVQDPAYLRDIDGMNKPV
# Experimental: as §1, §2, §3
# MOR = target: T3, MOR (Homo sapiens, UniProt P35372); experiment: Opioid receptor binding assay, MOR ([3H]DAMGO)
# T3 construct: expressed in transfected cells
# T3 sequence (P35372 whole entry): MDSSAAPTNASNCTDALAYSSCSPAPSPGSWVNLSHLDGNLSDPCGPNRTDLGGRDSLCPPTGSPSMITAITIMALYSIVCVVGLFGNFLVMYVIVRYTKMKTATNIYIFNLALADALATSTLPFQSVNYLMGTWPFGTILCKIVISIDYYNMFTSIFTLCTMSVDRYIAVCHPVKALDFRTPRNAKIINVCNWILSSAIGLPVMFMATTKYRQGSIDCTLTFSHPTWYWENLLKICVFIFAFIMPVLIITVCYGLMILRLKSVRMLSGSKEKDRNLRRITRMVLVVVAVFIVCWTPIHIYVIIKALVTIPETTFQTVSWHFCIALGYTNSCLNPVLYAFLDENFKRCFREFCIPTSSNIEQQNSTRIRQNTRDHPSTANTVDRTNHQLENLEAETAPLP
# Experimental: as §1, §2, §3
# [1] = Solubility determination in oil (Table 10); conditions: thermodynamic from solid; for solubility at 24 h: 25 °C, Obs. Temp. 25 °C; for solubility / solubility thermodynamic: 40 °C, Obs. Temp. 40 °C; for solubility thermodynamic: water, Equilibrium solubility: Water
# Experimental: A known amount of test substance (˜40 mg) was weighed into the vial, 100 μL of oil was added and heated to 60° C. and then system was slurried to reach equilibrium. […] Extra oil was added into the vial once compound precipitated out and then the system was re-equilibrated at 1000 rpm at room temperature (25° C.). Final concentration was determined by HPLC method as described below in Table 6a and 6b.
# [2] = Rat pharmacokinetic studies, intramuscular administration; type: in vivo, male Sprague Dawley Rats; conditions: for AUC(0-inf): read-out: AUC0-inf (ng · h/mL) prodrug
# Experimental: The purpose of this study is to determine the pharmacokinetics of test compounds in plasma, following intramuscular administration to male Sprague Dawley Rats (n=3, unless otherwise specified).
# The dose formulation of 400 mg base equivalents/ml in sesame oil+1% benzyl alcohol (unless otherwise specified) was administered by intramuscular injection. The dose volume was determined by the animals' body weight determined on the morning of dosing day.
# Each collected blood sample was centrifuged for 4 minutes at 4° C. and 10000 rpm for plasma collection. Plasma was collected and transferred into a pre-labeled PP tube in dry ice at each time point and precipitated immediately using ACN at a ratio of 1:4 (plasma:ACN). Centrifuged again (10 minutes, 12000 rpm) and obtain the supernatant.
# LC-MS/MS methods for the quantitative determination of test compound in biological matrix were developed. […] The sample analysis was performed concurrently with a set of calibration standards and two sets of QC samples using the LC-MS/MS method.
# Plasma concentration versus time data was analyzed by non-compartmental approaches using the Phoenix WinNonlin 6.3 software program. Cmax, Tmax, T1/2, AUC(0-t), AUC(0-inf), MRT(0-t), MRT(0-inf) and graphs of plasma concentration versus time profile were prepared.
# [3] = oil or lipid, Approximate Solubility in Excipient: Cottonseed oil, Heating Temp. 60 °C
# [4] = oil or lipid, Approximate Solubility in Excipient: Sesame oil, Heating Temp. 60 °C
# [5] = male, Sprague Dawley, rat, plasma, intramuscular, 0.8 mg/kg
SMILES,pIC50 (DOR),pIC50 (KOR),pIC50 (MOR),"solubility at 24 h [1, 3] [mg/mL]","solubility at 24 h [1, 4] [mg/mL]",solubility thermodynamic ([1]; Heating Temp. 40 °C) [mg/mL],also measured
"CCCCCCCCOC(=O)Oc1ccc2c3c1O[C@H]1C(=O)CC[C@@]4(O)C(C2)N(CC2CC2)CC[C@]314 [Compound 23, (4aS,7aR,12bS)-3-(cyclopropylmethyl)-4a-hydroxy-7-oxo-2,3,4,4a,5,6,7,7a-octahydro-1H-4,12-methanobenzofuro[3,2-e]isoquinolin-9-yl octyl carbonate]",6.97,7.93,8.55,> 408,> 424,–,"solubility [1, 3]: > 412 mg/mL; solubility ([1]; organic solvent or mixture, Approximate Solubility in Excipient: Ethanol, Heating Temp. 60 °C): > 419 mg/mL; solubility thermodynamic ([1]; Heating Temp. 60 °C): 0.0094 mg/mL"
"C=C1CC[C@@]2(O)C3Cc4ccc(OC(=O)CCCCCCCCCCC)c5c4[C@@]2(CCN3CC2CC2)[C@H]1O5 [Compound 59, (4aS,7aS,12bS)-3-(cyclopropylmethyl)-4a-hydroxy-7-methylene-2,3,4,4a,5,6,7,7a-octahydro-1H-4,12-methanobenzofuro[3,2-e]isoquinolin-9-yl dodecanoate, reference compound]",–,–,–,–,–,–,"AUC(0-inf) ([2]; male, Sprague Dawley, rat, plasma, im, 17 mg/kg, Sesame oil + 1% Benzyl Alcohol): 10.4 ng·h/mL; half-life ([2]; male, Sprague Dawley, rat, plasma, im, 17 mg/kg, Sesame oil + 1% Benzyl Alcohol, read-out: Half-life t1/2 (hour) prodrug (converted)): 15.2 h"
"C=C1CC[C@@]2(O)C3Cc4ccc(OCOC(=O)OCCCCCCCCCCCCCC)c5c4[C@@]2(CCN3CC2CC2)[C@H]1O5 [Compound 25, (((4aS,7aS,12bS)-3-(cyclopropylmethyl)-4a-hydroxy-7-methylene-2,3,4,4a,5,6,7,7a-octahydro-1H-4,12-methanobenzofuro[3,2-e]isoquinolin-9-yl)oxy)methyl tetradecyl carbonate]",5.02,6.05,8.30,> 414,> 404,< 0.001,–
C=C1CC[C@@]2(O)[C@H]3Cc4ccc(O)c5c4[C@@]2(CCN3CC2CC2)[C@H]1O5.Cl [Nalmefene HCl - IR],–,–,–,–,–,–,"AUC0-inf (ng · h/mL) nalmefene ([2]; 0.80 mg/kg, saline): 66.0 ng·h/mL; Terminal Half-life t1/2 (hour) nalmefene ([2]; 0.80 mg/kg, saline): 0.87 h"
"CCCCCCCCCCCCOC(=O)OCOc1ccc2c3c1O[C@H]1C(=O)CC[C@@]4(O)C(C2)N(CC2CC2)CC[C@]314 [Compound 29, (((4aS,7aR,12bS)-3-(cyclopropylmethyl)-4a-hydroxy-7-oxo-2,3,4,4a,5,6,7,7a-octahydro-1H-4,12-methanobenzofuro[3,2-e]isoquinolin-9-yl)oxy)methyl dodecyl carbonate]",–,–,–,> 410,> 416,< 0.001,"AUC(0-inf) ([2]; male, Sprague Dawley, rat, plasma, im, 165 mg/kg, Sesame oil + 1% Benzyl Alcohol): 74.8 ng·h/mL"
"C=C1CC[C@@]2(O)[C@H]3Cc4ccc(O)c5c4[C@@]2(CCN3CC2CC2)[C@H]1O5 [nalmefene HCL, reference compound]",–,–,–,–,–,–,"concentration at 1 h [2, 5]: 29.4 ng/mL; concentration at 2 h [2, 5]: 2.09 ng/mL; concentration at 4 h [2, 5]: 0.212 ng/mL; concentration at 8 h [2, 5]: 0.0178 ng/mL"
"C=C1CC[C@@]2(O)C3Cc4ccc(OC(=O)OCCCCCCCCCCCCCCC)c5c4[C@@]2(CCN3CC2CC2)[C@H]1O5 [Compound 32, (4aS,7aS,12bS)-3-(cyclopropylmethyl)-4a-hydroxy-7-methylene-2,3,4,4a,5,6,7,7a-octahydro-1H-4,12-methanobenzofuro[3,2-e]isoquinolin-9-yl pentadecyl carbonate]",< 5.00,5.67,7.76,> 396,> 410,0.0328,–
"C=C1CC[C@@]2(O)C3Cc4ccc(OCOC(=O)OCCCCCCCCCCCCCCCC)c5c4[C@@]2(CCN3CC2CC2)[C@H]1O5 [Compound 34, (((4aS,7aS,12bS)-3-(cyclopropylmethyl)-4a-hydroxy-7-methylene-2,3,4,4a,5,6,7,7a-octahydro-1H-4,12-methanobenzofuro[3,2-e]isoquinolin-9-yl)oxy)methyl hexadecyl carbonate]",< 5.00,5.75,7.90,> 404,> 405,< 0.001,–
"C=C1CC[C@@]2(O)C3Cc4ccc(OC(=O)OCCCCCCCCCCCCC)c5c4[C@@]2(CCN3CC2CC2)[C@H]1O5 [Compound 30, (4aS,7aS,12bS)-3-(cyclopropylmethyl)-4a-hydroxy-7-methylene-2,3,4,4a,5,6,7,7a-octahydro-1H-4,12-methanobenzofuro[3,2-e]isoquinolin-9-yl tridecyl carbonate]",5.73,7.05,8.05,252 to 404,253 to 399,< 0.001,–
"C=C1CC[C@@]2(O)C3Cc4ccc(OCOC(=O)CCCCCCCCCCC)c5c4[C@@]2(CCN3CC2CC2)[C@H]1O5 [Compound 44, (((4aS,7aS,12bS)-3-(cyclopropylmethyl)-4a-hydroxy-7-methylene-2,3,4,4a,5,6,7,7a-octahydro-1H-4,12-methanobenzofuro[3,2-e]isoquinolin-9-yl)oxy)methyl dodecanoate]",6.72,7.74,8.52,> 407,208 to 231,< 0.001,–
"C=C1CC[C@@]2(O)C3Cc4ccc(OCOC(=O)CCCCCCCCCCCCCCC)c5c4[C@@]2(CCN3CC2CC2)[C@H]1O5 [Compound 46, (((4aS,7aS,12bS)-3-(cyclopropylmethyl)-4a-hydroxy-7-methylene-2,3,4,4a,5,6,7,7a-octahydro-1H-4,12-methanobenzofuro[3,2-e]isoquinolin-9-yl)oxy)methyl hexadecanoate]",5.87,7.47,8.34,> 396,202 to 269,< 0.001,–
